Data reported in PMC2584044, “Key biosynthetic gene subfamily recruited for pheromone production prior to the extensive radiation of Lepidoptera” (BMC Evolutionary Biology, 2008).

Target: T1, Lca-QPAQ (Lca-Z9-QPAQ) (Lampronia capitella, UniProt B6CBS2)
T1 construct: full-length ORF, 353 residues, YEpOLEX in S. cerevisiae ole1
T1 sequence (B6CBS2 1-352): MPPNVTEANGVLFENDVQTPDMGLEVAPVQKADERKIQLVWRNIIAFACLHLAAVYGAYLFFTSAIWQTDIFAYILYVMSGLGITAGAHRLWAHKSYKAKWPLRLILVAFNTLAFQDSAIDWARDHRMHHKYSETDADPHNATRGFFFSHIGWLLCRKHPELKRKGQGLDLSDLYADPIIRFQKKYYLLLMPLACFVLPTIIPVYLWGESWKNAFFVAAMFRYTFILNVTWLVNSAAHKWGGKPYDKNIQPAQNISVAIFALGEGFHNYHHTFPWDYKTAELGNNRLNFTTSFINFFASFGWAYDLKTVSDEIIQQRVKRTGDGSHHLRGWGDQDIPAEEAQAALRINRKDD
Test: product GC-MS with DMDS adducts, yeast ole1 complementation
Type: cell-based
Conditions: endogenous yeast acyl (as acyl-CoA); 30 °C; product (Z)-9-hexadecenoic acid

CCCCCCCCCCCCCCCC(=O)O [palmitic acid]
product GC-MS with DMDS adducts, yeast ole1 complementation: Lca-QPAQ and Hass-KPSE are encoding Z9-desaturases displaying a substrate preference for palmitic acid
